Data taken from publication PMC7477610 (Travel Medicine and Infectious Disease, 2020).
Several values for one entry are separate records, joined by “and”; a condition that tells them apart may be missing. Equal values may be shown once. Read-outs that look alike come from different tables or passages of the source.

Assays:
Cytotoxicity assay = assay type: cell-based; settings: African green monkey, Vero E6 cells
SARS-CoV-2 [1] = settings: 10 μM, Vero E6 cells infected by SARS-CoV-2; cited from earlier work
[2] = can go up; cited from earlier work
[3] = cited from earlier work
[4] = tested on: SARS-CoV-2 (clinically isolated strain IHUMI-3); assay type: cell-based; settings: for Selectivity index (SI), ratio CC50/EC50: Vero E6 cells
[5] = cited from earlier work; remark: listed apart in the source
SARS-CoV-1 [6] = settings: read-out: EC50 against SARS-CoV-1; cited from earlier work
SARS-CoV-2 [7] = settings: read-out: EC50 against SARS-CoV-2; Vero E6 cells, MOI of 0.2; cited from earlier work
SARS-CoV-1 [8] = settings: mouse; cited from earlier work
[9] = at 6 h; cited from earlier work
[10] = cited from earlier work; remark: listed apart in the source
feline coronavirus = settings: read-out: EC50 against feline coronavirus; cited from earlier work
SARS-CoV-2 [11] = settings: read-out: EC50 against SARS-CoV-2; in vitro; cited from earlier work
dengue virus type 2 = settings: cited from earlier work
[12] = human, uptake of 612 mg, extrapolated from 0.07% of dose in rat lung
Ebola virus [13] = settings: read-out: EC50 against Ebola virus; cited from earlier work
Ebola virus [14] = settings: mouse, in vivo; cited from earlier work
[15] = amodiaquine given at 612 mg day
[16] = rats, single oral dose of 2 mg (10 mg/kg)

OC(c1cc(C(F)(F)F)nc2c(C(F)(F)F)cccc12)C1CCCCN1 (stereo not shown) [Mefloquine]
CC50 at 48 h (Cytotoxicity assay): 14.4 ± 2.1 µM
Inhibition of cytopathic effect (SARS-CoV-2 [1]): inhibited completely

CCN(CC)CCCC(C)Nc1ccnc2cc(Cl)ccc12 (stereo not shown) [Chloroquine]
Concentration in the lung [2]: up to 280 mg/kg
Adverse events [3]: 56%
Selectivity index (SI), ratio CC50/EC50 [4]: >47
CC50 at 48 h (Cytotoxicity assay): > 100 µM
Plasma concentration ([5]; chloroquine 100 mg day, prophylaxis of malaria): 0.01–0.4 mg/l and 0.03–1.25 μM
EC50 (SARS-CoV-1 [6]): 2.5 µM
EC50 (SARS-CoV-2 [7]): 7.1 µM
In vivo activity on SARS-CoV-1 (SARS-CoV-1 [8]): inactive

CCN(CCO)CCCC(C)Nc1ccnc2cc(Cl)ccc12 (stereo not shown) [Hydroxychloroquine]
CC50 at 48 h (Cytotoxicity assay): 20.4 ± 1.4 µM
Cmax ([5]; oral uptake of 400 mg): 1220 nM
EC50 (SARS-CoV-2 [7]): 17.3 µM
Blood concentration [9]: around 0.3 μM
Lung concentration [9]: 7.8 µM

CCCCN(CCCC)CC(O)c1cc(Cl)cc2c1-c1ccc(Cl)cc1/C2=C/c1ccc(Cl)cc1 (stereo not shown) [Lumefantrine]
Selectivity index (SI), ratio CC50/EC50 [4]: 4
CC50 at 48 h (Cytotoxicity assay): 87.7 ± 11.9 µM
Cmax ([5]; single oral dose 480 mg): 1100 nM

C=C[C@H]1C[N@@]2CC[C@H]1C[C@H]2[C@H](O)c1ccnc2ccc(OC)cc12 [Quinine]
Concentration lung/blood ratio ([10]; rat, intravenous dose of 10 mg/kg): 246
CC50 at 48 h (Cytotoxicity assay): > 100 µM
Blood Cmax ([5]; 600 mg single oral dose of quinine sulphate): around 3.5 mg/l
Cmax ([5]; read-out: Blood Cmax, 600 mg single oral dose of quinine sulphate): ~8500 nM

C[C@H]1[C@@H](O)O[C@@H]2O[C@@]3(C)CC[C@H]4[C@H](C)CC[C@@H]1[C@@]24OO3 [Dihydroartemisinin]
Selectivity index (SI), ratio CC50/EC50 [4]: 3
CC50 at 48 h (Cytotoxicity assay): 58.9 ± 7.4 µM

Clc1ccc2c(N3CCN(CCCN4CCN(c5ccnc6cc(Cl)ccc56)CC4)CC3)ccnc2c1 [Piperaquine]
Selectivity index (SI), ratio CC50/EC50 [4]: 2
CC50 at 48 h (Cytotoxicity assay): 55 ± 4.8 µM

Ferroquine
EC90 ([4]; read-out: 90% effective concentration (EC90) against SARS-CoV-2): 2.4 ± 0.9 µM
EC50 ([4]; read-out: Median effective concentration (EC50) against SARS-CoV-2): 1.5 ± 0.3 µM
EC50 (feline coronavirus): 2.9 µM
Mean Cmax (maximum blood concentration) ([5]; oral uptake of 800 mg): 155 ng/mL
t1/2 (elimination half-life) ([5]; oral uptake of 800 mg): 10.9 days
Cmax ([5]; read-out: Mean Cmax (maximum blood concentration), oral uptake of 800 mg): ~600 nM
EC50 (SARS-CoV-1 [6]): 1.4 µM

C[C@H]1c2cccc(O)c2C(=O)C2=C(O)[C@]3(O)C(=O)C(C(N)=O)=C(O)[C@@H](N(C)C)[C@@H]3[C@@H](O)[C@@H]21 [doxycycline]
EC50 (SARS-CoV-2 [11]): 5.6 µM

CCN(CC)Cc1cc(Nc2ccnc3cc(Cl)ccc23)ccc1O [Amodiaquine]
EC50 (dengue virus type 2; read-out: EC50, dengue virus type 2 replication): 1.08 µM
EC90 (dengue virus type 2; read-out: EC90, dengue virus type 2 replication): 2.69 µM
Amount that would be found in lungs [12]: 428 µg
EC50 (SARS-CoV-1 [6]): 2.5 µM
In vivo activity on SARS-CoV-1 (SARS-CoV-1 [8]): inactive

CCNCc1cc(Nc2ccnc3cc(Cl)ccc23)ccc1O [Desethylamodiaquine]
CC50 at 48 h (Cytotoxicity assay): 86.1 ± 10.5 µM
Plasma concentration of desethylamodiaquine [5, 15]: 753 ng/ml and around 1.9 μM
t1/2 [5, 15]: 8.9 days

COc1ccc2nc3cc(Cl)ccc3c(Nc3cc(CN4CCCC4)c(O)c(CN4CCCC4)c3)c2n1 [Pyronaridine]
Blood Cmax [10, 16]: 223 ng/mL
Lung Cmax [10, 16]: 36.4 µg/g
Lung Cmax relative to blood Cmax (more concentrated) [10, 16]: 165
Adverse events [3]: around 38%
Selectivity index (SI), ratio CC50/EC50 [4]: 22
CC50 at 48 h (Cytotoxicity assay): 15.9 ± 1.6 µM
EC50 (Ebola virus [13]): 1.14 µM
t1/2 ([5]; 720 mg day, human): 33.5 days
Plasma concentration ([5]; 720 mg day, human, listed as Pyronaridine tetraphosphate): 271 ng/ml and around 0.3 μM
Protection against Ebola virus infection (Ebola virus [14]): protected mice
